Laboratory results: publication PMC8481536, “Wells–Dawson phosphotungstates as mushroom tyrosinase inhibitors: a speciation study” (Scientific Reports, 2021)
Several values for one entry are separate records, joined by “and”; a condition that tells them apart may be missing. Identical values can stand only once.

Test: Speciation / hydrolytic stability of POT solutions in 50 mM Na-citrate buffer pH 6.8 by 31P-NMR and 183W-NMR
Type: physicochemical
Conditions: for 31P-NMR spectrum 96 h after preparation compared with 48 h: for [P2W12]: signal at −8.3 ppm of hexalacunary anion; for Share of unidentified / unstable solution intermediates: 31P-NMR integrated POT signals, aged solutions; for Share of monolacunary [α2-P2W17O61]10− in solution, 48 h after preparation / Share of unchanged educt anion in solution, after 48 h / Share of unchanged educt anion in solution, fresh (1 h) / Share of monolacunary [α2-P2W17O61]10− in solution, fresh (1 h after preparation): 31P-NMR peak integration; for Share of free phosphate in solution: fresh and 48 h aged ([P2W15]), after rearrangement ([P2W12])
Description: The detailed structural information about species under the respective experimental conditions is essential for understanding of POT activity. […] The concentration of all species was calculated based on ^31P-NMR peaks integration. Since the stock solutions of each Wells–Dawson POT was used up to three days after preparation and ^183W-NMR acquisition takes 60 h, ^31P-NMR spectra for all four solutions have been recorded 1 h and 48 h after preparation to check if speciation changes occur over time. […] In the solution of intact POT one hour after preparation 12% of [α2-P^V2W^VI17O61]^10− was detected based on ^31P-NMR peaks integration (Fig. 3A), whereas 48 h after dissolution the concentration of monolacunary anion increased to 69%. […] The ^183 W-NMR spectra of monolacunary [P2W17]^10− (Fig. S8A) and trilacunary [P2W15]^12− (Fig. S8C) are in agreement with ^31P-NMR data confirming the presence of only the monolacunary anion by 9 signals. The ^31P-NMR spectrum of fresh hexalacunary POT [P2W12]^12− (Fig. 3D) points to the presence of unhydrolyzed hexalacunary [H2P^V2W^VI12O48]^12− (72%) together with a low amount of monolacunary [α2-P^V2W^VI17O61]^10− (20%). After 48 h, the signals corresponding to hexalacunary [H2P^V2W^VI12O48]^12− and monolacunary [α2-P^V2W^VI17O61]^10− decreased to 9% and 3%, respectively, while two intense signals at − 7.5 and − 9.5 ppm appeared. […] The signal at − 7.5 ppm corresponds to [P^V8W^VI48O184]^40−, which was previously detected in solutions with a high amount of NH 4^+[37]. The presence of four different POTs in [P2W12]^12− 48 h after preparation renders the detection of all species’ signals in the ^183W-NMR spectrum impossible due to their low concentrations and the low abundancy (14%) of the ^183W isotope (Fig. S8D). The most intense signals at -190.3, -191.6 and -211.3 ppm correspond to three types of W ions in cyclic [P^V8W^VI48O184]^40−[43]. ^31P-NMR spectra recorded 96 h after preparation are identical to those recorded after 48 h for [P2W18]^6−, [P2W17]^10− and [P2W15]^12−. […] In every ^31P-NMR analysis, peaks for free phosphate were observed, indicating the release of HxPO4^x−3 from the POT clusters as a consequence of partial decomposition or rearrangement (Fig. 3). The weak signals between − 12 and − 7 ppm in the ^31P-NMR spectra (Fig. 3) with a total amount of no more than 19% of all POT signals, correspond to solution intermediates of unknown identity that have been reported previously.
^183W-NMR and ^31P-NMR were recorded with a Bruker FT-NMR spectrometer Avance Neo 500 MHz (Bruker, Rheinstetten, Germany) at 25 °C. Chemical shifts were measured relative to 1 M Na2WO4 and 85% H3PO4. ^183W-NMR samples were prepared in 2.7 mL Na-citrate buffer (50 mM, pH 6.8) with a POT concentration of 2 mM with or without 1 mM L-DOPA and measured in 10 mm tubes. The experimental time was ca. 60 h, with a standard pulse program at 20.836 MHz and a 63° flip angle with 1 s relaxation delay. Subsequently, ^31P-NMR was measured at 202.53 MHz.
^183W-NMR was performed in 50 mM Na-citrate buffer at pH 6.8 to obtain insight into the chemical speciation and hydrolytic stability of POTs. The peaks of the ^183W-NMR for [P2W18]^6− are shifted by approx. 4–5 ppm downfield relative to the assignment in the literature (Table S2). The slight shifting can be explained by different buffer conditions and ionic strength of the solution with regard to the reference data.
The ^183W-NMR speciation indicates the presence of [α2-P^V2W^VI17O61]^10− anions in [P2W18]^6−, [P2W17]^10−, [P2W15]^12− at pH 6.8 (Figs. S8, S12). For the ^183W-NMR of [P2W18]^6− at pH 4 two lines (1:2) were assigned (Fig. S7), whereas for the same compound at neutral pH a mixture of [α-P^V2W^VI18O62]^6− (1:2) and [α2-P^V2W^VI17O61]^10− (2:2:2:2:1:2:2:2:2) was observed (Fig. S8). Also, the β-isomer was detected at pH 4 and pH 6.8, respectively (Figs. S7, S8). […]

[1] = 31P-NMR, 50 mM Na-citrate pH 6.8

Substance | 31P-NMR spectrum 96 h after preparation compared with 48 h (50 mM Na-citrate pH 6.8) | Share of unidentified / unstable solution intermediates (50 mM Na-citrate pH 6.8) | Share of monolacunary [α2-P2W17O61]10− in solution, 48 h after preparation (50 mM Na-citrate pH 6.8) | Influence of the substrate L-DOPA on the POT solution (reduction / speciation) (50 mM Na-citrate pH 6.8) | Dominant POT species at pH 6.8 in Na-citrate buffer | Stable in Na-citrate buffer at pH 6.8 | Share of unchanged educt anion in solution, after 48 h (50 mM Na-citrate pH 6.8) [%] | Share of unchanged educt anion in solution, fresh (1 h) (50 mM Na-citrate pH 6.8) [%] | Share of monolacunary [α2-P2W17O61]10− in solution, 48 h after preparation (50 mM Na-citrate pH 6.8, listed as [α/β-P^V2W^VI18O62]^6−) | Sample composition after 28 days storage (Na-citrate buffer pH 6.8, room temperature, 183W-NMR and 31P-NMR) | Share of monolacunary [α2-P2W17O61]10− in solution, fresh (1 h after preparation) (50 mM Na-citrate pH 6.8) [%] | Share of [P2W19O69(H2O)]14− in solution after 48 h [1] [%] | Share of [P8W48O184]40− in solution after 48 h [1] [%] | Share of free phosphate in solution [1] [%] | Share of monolacunary [α2-P2W17O61]10− in solution, fresh (1 h after preparation) (50 mM Na-citrate pH 6.8, listed as [P^V2W^VI15O56]^12−)
K10[α2-P^V2W^VI17O61]·20H2O [[P2W17]^10−] | identical | 8% | 92% | no change in speciation | Hx[α2-P^V2W^VI17O61]^(10−x)− | Yes |  |  |  |  |  |  |  |  | 
K6[α/β-P^V2W^VI18O62]·14H2O [[P2W18]^6−] | identical | 9% | 69% | turned blue | Hx[α2-P^V2W^VI17O61]^(10−x)− | No | 15 | 88 | ~ 69% | low amounts of the α-isomer were found, but no β-isomer was detected |  |  |  |  | 
(NH4)12[H2P^V2W^VI12O48]·24H2O [[P2W12]^12−] | disappeared completely | 19% | 3% | no change in speciation | [H2P^V2W^VI12O48]^12− + Hx[α2-P^V2W^VI17O61]^(10−x)− + [P^V2W^VI19O69(H2O)]^14− + [P^V8W^VI48O184]^40− | No | 9 | 72 |  |  | 20 | 22 | 23 | 24 | 
K12[P^V2W^VI15O56]·24H2O [[P2W15]^12−] | identical | 3% and 5% | 62% and 61% | no change in speciation | Hx[α2-P^V2W^VI17O61]^(10−x)− | No |  |  |  |  | 62 |  |  | 35 | ~ 62%
